Laboratory results reported in patent publication US12622898B2, “Methods and compositions for improving bone marrow hematopoietic functions” (SUN YAT-SEN UNIVERSITY, priority 2019, dated 2026).

Columns and labels:
[1] = test system: Pdk3 expression in HSPCs; assay: Pdk3 mRNA levels and immunoblotting in HSCs treated with inhibitors; type: cell-based, mouse
Method: The same number of cells from each population to be analyzed were sorted into PBS with 2% FBS. The cells then were washed with PBS and Lysised by RIPA. Equal amounts of protein extracts were fractionated by 12.5% SDS-PAGE and transferred to a PVDF membrane (IPVH00010, Merck Millipore). After blocked with 5% non-fat milk in Tris-buffered saline with Tween-20 (TBST, pH 7.6) for 1 h at room temperature, the membranes were incubated with primary antibodies anti-phospho-PDHE1-A type I (Ser293) (rabbit, 1:1000, ABS204, Merck Millipore), anti-Sphk2 (rabbit, 1:1000, 17096, Proteintech), anti-PDK3 (rabbit, 1:1000, 4970s, Proteintech), or anti-βactin (rabbit, 1:1000, 2118, Cell Signaling Technology), or with primary antibodies anti-PDK3 (rabbit, 1:1000, 12215, Proteintech), anti-β-actin (rabbit, 1:1000, 4970s, Cell Signaling Technology), overnight at 4° C. and then incubated with secondary antibodies (rabbit, 1:10,000, W401B, Promega) for 1 h at room temperature, which was detected by exposure to x-ray film, or by digital imaging with a charge-coupled device camera system (Odyssey Fc). The images shown are representative of images from at least three experiments.

[2] = test system: HSPCs from Sphk2 deficient mice; assay: DCA treatment of Sphk2 deficient and control mice; type: in vivo, mouse; details: Sphk2 deficient mice treated for 14 days, vs vehicle treated littermates
Text: B6N.129S6-Sphk1tm1Rlp/J (Sphk1Δ/Δ) and B6N.129S6-Sphk2tm1Rlp/J (Sphk2Δ/Δ) mice were obtained from the Jackson Laboratory. To achieve tissue-specific deletion of Sphk2, the Sphk2^flox/flox mice were crossed with Vav-Cre transgenic mice. Sphk2^flox/flox mice was constructed by Cyagen Biosciences Inc. Briefly, linearized targeting vector was electroporated into embryonic stem (ES) cells and positive clones were identified by Southern blotting and injected into C57BL/6 blastocysts followed by chimera production to obtain germline transmission. The Frt-flanked Neo cassette was subsequently removed by mating with Flpe mice. 2-month-old mice or more than 20-month old for aging we used as indicated. 5 FU (Sigma-Aldrich) was injected once or once a week for survival curve as indicated in the tail vein at 150 μg/g body weight. Sphk2 inhibitor ABC294640 (Target Molecule Corp T6750) and PDK inhibitor Sodium dichloroacetate (DCA) (Selleck Chemicals S8615) were intraperitoneal injected at 25 mg/kg. […] Animals were randomly included in the experiments according to genotyping results as a mix of male and female. All animal experiments were performed according to protocols approved by the institutional animal care and use committee.
For phenotype analysis and hematopoietic purification, hematopoietic cells were harvested from bone marrow (femur and tibia). For cell surface phenotyping, a lineage cocktail (Lin, phycoerythrin (PE)-Cy5) was used, including anti-CD3 (145-2C11), anti-CD4 (RM4-5), anti-CD8 (53-6.7), anti-Mac-1 (M1/70), anti-Gr1 (RB6-8C5), anti-B220 (RA3-6B2), anti-IgM (11/41) and anti-TER119 (TER-119) (100 ng antibody cocktail per million bone marrow cells, Biolegend). Monoclonal antibodies to SCA1 (D7, Biolegend), c-KIT (2B8, Biolegend), FLK2 (A2F10, Biolegend), CD34 (RAM34, eBioscience), CD48 (HM48-1, Biolegend), CD41 (MWReg30, eBioscience), CD150 (TC15-12F12.2, BioLegend), CD16/32 (93, Biolegend), IL-7R (A7R34, Biolegend) (all used as 50 ng per million bone marrow cells) were also used where indicated. […]

Compound | Pdk3 expression in HSPCs [1] | HSPC numbers ([2]; 25 mg/kg intraperitoneal) | HSC quiescence [2] | ROS levels in HSPCs [2]
CCCCCCCCc1ccc(CCC(N)(CO)CO)cc1 [FTY720] | not |  |  | 
O=C([O-])C(Cl)Cl.[Na+] [DCA, Sodium dichloroacetate] |  | reduced HSPC numbers | compromised HSC quiescence | increased ROS levels
